# Key:
# barnyardgrass = assay: Test A pre-/postemergence greenhouse test; format: in vivo, Echinochloa crus-galli; conditions: for Barnyardgrass plant response rating: 0 to 100 scale
# Method in brief: (§1)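 Greenhouse herbicide screen, pre- and postemergence in parallel. Soil: loam plus sand. Formulation: non-phytotoxic solvent mix with surfactant. Postemergence stage: one to two leaves, 2–10 cm height. Evaluation: visual injury, compared with untreated controls, about 10 days after treatment.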
# velvetleaf = assay: Test C pre-/postemergence test; format: in vivo, Abutilon theophrasti; conditions: Preemergence
# Method in brief: (§2)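 Test chemicals were formulated with surfactant in a non-phytotoxic solvent and sprayed both on freshly planted seeds (preemergence) and on 1- to 4-leaf plants of 2–18 cm (postemergence). Flooded-paddy pots received compound directly into 3 cm of standing water, maintained for the test.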
# johnsongrass = assay: Test C pre-/postemergence test; format: in vivo, Sorghum halepense; conditions: Preemergence
# Method in brief: as §2
# morningglory = assay: Test C pre-/postemergence test; format: in vivo, Ipomoea coccinea; conditions: Preemergence
# Method in brief: as §2
# Goosegrass = assay: Test C pre-/postemergence test; format: in vivo, Eleusin indica; conditions: Preemergence
# Method in brief: as §2
# corn [1] = assay: Test C pre-/postemergence test; format: in vivo, Zea mays
# Method in brief: as §2
# [2] = system: common (oilseed) sunflower; assay: Test C pre-/postemergence test; format: in vivo, Helianthus annuus; conditions: Preemergence
# Method in brief: as §2
# corn [3] = assay: Test A pre-/postemergence greenhouse test; format: in vivo, Zea mays; conditions: for Corn plant response rating: 0 to 100 scale
# Method in brief: as §1
# Italian ryegrass = assay: Test C pre-/postemergence test; format: in vivo, Lolium multiflorum; conditions: Preemergence
# Method in brief: as §2
# pigweed = assay: Test C pre-/postemergence test; format: in vivo, Amaranthus retroflexus; conditions: Preemergence
# Method in brief: as §2
# giant foxtail = assay: Test C pre-/postemergence test; format: in vivo, Setaria faberii; conditions: Preemergence
# Method in brief: as §2
# umbrella sedge = assay: Test C flooded paddy test; format: in vivo, Cyperus difformis; conditions: Flood
# Method in brief: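 Compound was added to standing water 3 cm above soil, flood maintained, and plants held in a greenhouse before visual scoring against controls at 13 to 15 days.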
# crabgrass [4] = assay: Test C pre-/postemergence test; format: in vivo, Digitaria sanguinalis; conditions: Preemergence
# Method in brief: as §2
# eastern black nightshade = assay: Test C pre-/postemergence test; format: in vivo, Solanum ptycanthum; conditions: Preemergence
# Method in brief: as §2
# crabgrass [5] = assay: Test A pre-/postemergence greenhouse test; format: in vivo, Digitaria sanguinalis; conditions: for Crabgrass, Large plant response rating: 0 to 100 scale
# Method in brief: as §1
# Surinam grass = assay: Test C pre-/postemergence test; format: in vivo, Brachiaria decumbens; conditions: Preemergence
# Method in brief: as §2
# wheat = assay: Test A pre-/postemergence greenhouse test; format: in vivo, Triticum aestivum; conditions: for Wheat plant response rating: 0 to 100 scale
# Method in brief: as §1
# [6] = Postemergence, 125 g ai/ha, 0 is no effect, 100 is complete control
# [7] = Postemergence, 500 g ai/ha, 0 is no effect, 100 is complete control
# [8] = Preemergence, 125 g ai/ha, 0 no effect, 100 complete control
# [9] = Preemergence, 500 g ai/ha, 0 to 100 scale where 0 is no effect and 100 is complete control
# [10] = 31 g ai/ha, scale 0 to 100 (0 no effect, 100 complete control)
compound,measurement,setting,value
Cn1nc(C(F)(F)F)c(C[S+]([O-])c2cccc[n+]2[O-])c1OCC(F)(F)F (racemic) [Compound 28],Barnyardgrass plant response rating,barnyardgrass; [6],80
same,Barnyardgrass plant response rating,barnyardgrass; [7],90
same,Barnyardgrass plant response rating,barnyardgrass; [8],90
same,"Plant response rating, Barnyardgrass",barnyardgrass; [9],100
same,Velvetleaf plant response rating,"velvetleaf; 62 g ai/ha, scale 0 to 100",100
same,"Plant response rating, Velvetleaf",velvetleaf; [10],80
same,Johnsongrass plant response rating,"johnsongrass; 62 g ai/ha, scale 0 to 100",100
same,"Plant response rating, Johnsongrass",johnsongrass; [10],85
same,"Plant response rating (0 to 100), Johnsongrass",johnsongrass; 250 g ai/ha,100
same,Morningglory plant response rating,"morningglory; 62 g ai/ha, scale 0 to 100",100
same,"Plant response rating, Morningglory",morningglory; [10],40
same,Goosegrass plant response rating,"Goosegrass; 62 g ai/ha, scale 0 to 100",100
same,"Plant response rating, Goosegrass",Goosegrass; [10],100
same,"Plant response rating (0 to 100), Goosegrass",Goosegrass; 250 g ai/ha,100
same,Corn plant response rating,"corn [1]; 62 g ai/ha, Preemergence, scale 0 to 100",85
same,"Plant response rating, Corn","corn [1]; Preemergence, 31 g ai/ha, scale 0 to 100 (0 no effect, 100 complete control)",30
same,"Plant response rating (0 to 100), Corn","corn [1]; Preemergence, 250 g ai/ha",100
same,Corn plant response rating,"corn [1]; preemergence, 125 g ai/ha, scale 0 (no effect) to 100 (complete control)",100
same,Sunflower plant response rating,"[2]; 62 g ai/ha, scale 0 to 100",85
same,"Plant response rating, Sunflower",[2]; [10],50
same,Corn plant response rating,corn [3]; [6],60
same,Corn plant response rating,corn [3]; [7],70
same,Corn plant response rating,corn [3]; [8],0
same,"Plant response rating, Corn",corn [3]; [9],80
same,"Ryegrass, Italian plant response rating","Italian ryegrass; 62 g ai/ha, scale 0 to 100",85
same,"Plant response rating, Ryegrass, Italian",Italian ryegrass; [10],80
same,Pigweed plant response rating,"pigweed; 62 g ai/ha, scale 0 to 100",100
same,"Plant response rating, Pigweed",pigweed; [10],100
same,"Foxtail, Giant plant response rating","giant foxtail; 62 g ai/ha, scale 0 to 100",100
same,"Plant response rating, Foxtail, Giant",giant foxtail; [10],95
same,"Plant response rating (0 to 100), Foxtail, Giant",giant foxtail; 250 g ai/ha,100
same,"Plant response rating, Sedge, Umbrella",umbrella sedge; [10],75
same,"Plant response rating, Sedge, Umbrella","umbrella sedge; 62 g ai/ha, scale 0 to 100, 0 no effect, 100 complete control, 13 to 15 days",95
same,"Plant response rating, Sedge, Umbrella","umbrella sedge; 125 g ai/ha, scale 0 to 100, 0 no effect, 100 complete control, 13 to 15 days",100
same,"Plant response rating, Sedge, Umbrella","umbrella sedge; 250 g ai/ha, scale 0 to 100, 0 no effect, 100 complete control, 13 to 15 days",100
same,"Crabgrass, Large plant response rating","crabgrass [4]; 62 g ai/ha, scale 0 to 100",100
same,"Plant response rating, Crabgrass, Large",crabgrass [4]; [10],100
same,"Plant response rating (0 to 100), Crabgrass, Large",crabgrass [4]; 250 g ai/ha,100
same,Nightshade plant response rating,"eastern black nightshade; 62 g ai/ha, scale 0 to 100",100
same,"Plant response rating, Nightshade",eastern black nightshade; [10],90
same,"Crabgrass, Large plant response rating",crabgrass [5]; [6],80
same,"Crabgrass, Large plant response rating",crabgrass [5]; [7],90
same,"Crabgrass, Large plant response rating",crabgrass [5]; [8],100
same,"Plant response rating, Crabgrass, Large",crabgrass [5]; [9],100
same,Surinam Grass plant response rating,"Surinam grass; 62 g ai/ha, scale 0 to 100",100
same,"Plant response rating, Surinam Grass",Surinam grass; [10],85
same,Wheat plant response rating,wheat; [6],60
same,Wheat plant response rating,wheat; [7],70
same,Wheat plant response rating,wheat; [8],70
same,"Plant response rating, Wheat",wheat; [9],100

# Source: US20100298141A1, “SUBSTITUTED PYRIDINE N-OXIDE HERBICIDES” (E. I. DU PONT DE NEMOURS AND COMPANY, priority 2007, published 2010)
